The results in this text go back to US7414107B2, “Pharmacologically active peptide conjugates having a reduced tendency towards enzymatic hydrolysis” (priority 1998, dated 2008).

One data set has as its target T1, leucine aminopeptidase (Sus scrofa, UniProt P28839).
T1 construct: purchased Sigma, UK type III-CP (catalogue number not given); host or cells: porcine kidney
T1 sequence (P28839 1-519): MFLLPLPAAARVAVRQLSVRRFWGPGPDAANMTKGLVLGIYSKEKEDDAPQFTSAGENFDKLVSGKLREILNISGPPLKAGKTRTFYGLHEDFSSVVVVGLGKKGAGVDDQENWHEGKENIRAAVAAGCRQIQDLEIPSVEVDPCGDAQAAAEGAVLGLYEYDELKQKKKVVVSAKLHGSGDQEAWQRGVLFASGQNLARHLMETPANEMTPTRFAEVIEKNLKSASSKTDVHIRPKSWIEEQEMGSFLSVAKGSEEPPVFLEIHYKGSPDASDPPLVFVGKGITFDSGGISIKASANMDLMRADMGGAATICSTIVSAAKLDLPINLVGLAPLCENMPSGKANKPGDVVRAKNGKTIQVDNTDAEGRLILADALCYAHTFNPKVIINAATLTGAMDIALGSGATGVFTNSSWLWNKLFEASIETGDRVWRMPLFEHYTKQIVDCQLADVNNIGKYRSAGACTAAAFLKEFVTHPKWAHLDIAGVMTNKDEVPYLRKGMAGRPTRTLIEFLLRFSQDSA
In words: Hydrolysis kinetics in leucine aminopeptidase solution. It counts as in vitro ADME, porcine. Conditions: 50 mM phosphate buffer pH 7.4, 37° C., leucine aminopeptidase 25 U/ml; for half-life: pig. As to the method:
(§1) Carboxypeptidase A (EC 3.4.17.1) type I from bovine pancreas, leucine aminopeptidase (EC 3.4.11.1) type III-CP from porcine kidney, α-chymotrypsin (EC […]) from bovine pancreas, and pepsin A (EC 3.4.23.1) from porcine stomach mucosa […] were obtained from Sigma, UK.
(§2) Gradient HPLC analysis of samples from in vitro kinetic measurements performed as described below was performed using a Hewlett Packard HP 1100 HPLC system consisting of a HP 1100 Binary Pump, a HPI 100 Autosampler, a HPI 100 Column Thermostat and a HP 1100 Variable Wavelength Detector. A Merck LiChroCART column (125×4 mm I.D.) and a LiChroCART precolumn (4×4 mm I.D.) packed with Lichrospher RP-18 (5 .μum particles) was used. The column was kept at 25° C. or 75° C. and the column effluent was measured by UV detection at 215 run. Separation of the peptide conjugates or the native peptides from degradation products and constituents of the reaction solutions was accomplished using gradient elution of the column with mixtures of mobile phase A (0.1 vol % TFA in water) and mobile phase B (0.085 vol % TFA in acetonitrile) at a flow rate of 1 ml/min.
(§3) The degradation of the peptide conjugate and the corresponding native peptide were studied at 37° C. in a 50 mM phosphate buffer solution at pH 7.4 containing leucine arninopeptidase (25 U/ml) or carboxypeptidase A (1 or 25 U/ml). Experiments were initiated by addition of an aliquot (100 μl) of a stock solution (1 mg/ml) of the peptide conjugate or the native peptide to 900 μl preheated enzyme solution giving a final concentration of ˜0.1 mg/ml (10^−5-10^−4M) of the peptide conjugate or the native peptide. The peptide/enzyme solution was kept at 37° C. using a SHT200D block heater from Stuart Scientific. At appropriate time intervals, samples of 100 μl were withdrawn from the peptide/enzyme solution, mixed thoroughly with 20 μl 25% TFA in acetonitrile in order to stop the enzymatic degradation process and analysed by HPLC as described above. Half-lives (t1/2) for the peptide conjugate and the corresponding native peptide in the enzyme solutions were calculated from plots of the natural logarithm to the concentration of the residual peptide (HPLC peak heights) against time using the formula t/2=1/kobs×ln(2), where kobs is the apparent first-order rate constant for the observed degradation.

The target in a further data set is T2, carboxypeptidase A (Bos taurus, UniProt P00730).
T2 construct: purchased Sigma, UK type I (catalogue number not given); host or cells: bovine pancreas
T2 sequence (P00730 111-419): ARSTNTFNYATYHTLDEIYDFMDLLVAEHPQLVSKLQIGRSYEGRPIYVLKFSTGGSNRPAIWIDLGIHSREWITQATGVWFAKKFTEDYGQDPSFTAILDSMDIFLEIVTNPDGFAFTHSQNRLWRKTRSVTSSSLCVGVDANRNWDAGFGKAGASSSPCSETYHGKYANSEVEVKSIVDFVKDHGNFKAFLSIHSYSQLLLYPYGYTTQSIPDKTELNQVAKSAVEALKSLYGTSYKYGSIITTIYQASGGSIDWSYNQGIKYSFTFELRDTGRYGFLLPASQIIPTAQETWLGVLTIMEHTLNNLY
Briefly: Hydrolysis kinetics in carboxypeptidase A solution. It counts as in vitro ADME, bovine. Conditions: 50 mM phosphate buffer pH 7.4, 37° C., carboxypeptidase A 1 U/ml. As to the method:
as §1, §2, §3

Where a SMILES comes first, the peptide text is derived from it. Bridges are numbered along the chain shown (N, C = ends). Where no end group is shown, it is not given here. [ ]: non-standard residue; d: D form. Dab = NCC[C@H](N)C(=O)O

In general, half-life refers to the time in which the quantity being followed falls by half. Regarding `CC(C)C[C@@H]1NC(=O)[C@@H]2CCCN2C(=O)CNC(=O)[C@H](Cc2ccccc2)NC(=O)[C@H](Cc2c[nH]cn2)NC(=O)[C@@H](NC(=O)[C@H](CO)NC(=O)[C@H](Cc2ccc(O)cc2)NC(=O)[C@@H](NC(=O)CNC(=O)CNC(=O)[C@H](CCCCN)NC(=O)[C@H](CCCCN)NC(=O)[C@H](CCCCN)NC(=O)[C@H](CCCCN)NC(=O)[C@H](CCCCN)NC(=O)[C@@H](N)CCCCN)[C@@H](C)O)CSSC[C@@H](C(=O)N[C@@H](CCCCN)C(=O)N2CCC[C@H]2C(=O)N[C@@H](CCC(N)=O)C(=O)NCC(=O)NCC(=O)N[C@@H](CCCCN)C(=O)N[C@@H](CCCCN)C(=O)N[C@@H](CCCCN)C(=O)N[C@@H](CCCCN)C(=O)N[C@@H](CCCCN)C(=O)N[C@@H](CCCCN)C(=O)O)NC(=O)[C@H](C(C)C)NC(=O)[C@H](Cc2c[nH]c3ccccc23)NC(=O)[C@H]([C@@H](C)O)NC1=O` [(Lys)6-EMP-1-(Lys)6-OH, H-(Lys)6-Gly-Gly-Thr-Tyr-Ser-Cys-His-Phe-Gly-Pro-Leu-Thr -Trp-Val-Cys-Lys-Pro-Gln-Gly-Gly-(Lys)6-OH] (H-KKKKKKGGTYSCHFGPLTWVCKPQGGKKKKKK-OH; disulfide 12-21), at leucine aminopeptidase, the half-life is above 100 h.
`CC(C)C[C@@H]1NC(=O)[C@@H]2CCCN2C(=O)CNC(=O)[C@H](Cc2ccccc2)NC(=O)[C@H](Cc2c[nH]cn2)NC(=O)[C@@H](NC(=O)[C@H](CO)NC(=O)[C@H](Cc2ccc(O)cc2)NC(=O)[C@@H](NC(=O)CNC(=O)CNC(=O)[C@H](CCCCN)NC(=O)[C@H](CCCCN)NC(=O)[C@H](CCCCN)NC(=O)[C@H](CCCCN)NC(=O)[C@H](CCCCN)NC(=O)[C@@H](N)CCCCN)[C@@H](C)O)CSSC[C@@H](C(=O)N[C@@H](CCCCN)C(=O)N2CCC[C@H]2C(=O)N[C@@H](CCC(N)=O)C(=O)NCC(=O)NCC(=O)O)NC(=O)[C@H](C(C)C)NC(=O)[C@H](Cc2c[nH]c3ccccc23)NC(=O)[C@H]([C@@H](C)O)NC1=O` [(Lys)6-EMP-1-OH, H-(Lys)6-Gly-Gly-Thr-Tyr-Ser-Cys-His-Phe-Gly-Pro-Leu -Thr-Trp-Val-Cys-Lys-Pro-Gln-Gly-Gly-OH] (H-KKKKKKGGTYSCHFGPLTWVCKPQGG-OH; disulfide 12-21) gave a half-life on leucine aminopeptidase above 24 h.
Take `CC[C@H](C)[C@H](NC(=O)[C@H](Cc1ccccc1)NC(=O)[C@H](CCC(=O)O)NC(=O)[C@H](CCCCN)NC(=O)[C@H](C)NC(=O)[C@H](C)NC(=O)[C@H](CCC(N)=O)NC(=O)CNC(=O)[C@H](CCC(=O)O)NC(=O)[C@H](CC(C)C)NC(=O)[C@H](Cc1ccc(O)cc1)NC(=O)[C@H](CO)NC(=O)[C@H](CO)NC(=O)[C@@H](NC(=O)[C@H](CC(=O)O)NC(=O)[C@H](CO)NC(=O)[C@@H](NC(=O)[C@H](Cc1ccccc1)NC(=O)[C@@H](NC(=O)CNC(=O)[C@H](CCC(=O)O)NC(=O)[C@H](C)NC(=O)[C@@H](N)Cc1c[nH]cn1)[C@@H](C)O)[C@@H](C)O)C(C)C)C(=O)N[C@@H](C)C(=O)N[C@@H](Cc1c[nH]c2ccccc12)C(=O)N[C@@H](CC(C)C)C(=O)N[C@H](C(=O)N[C@@H](CCCCN)C(=O)NCC(=O)N[C@@H](CCCNC(=N)N)C(=O)N[C@@H](CCCCN)C(=O)N[C@@H](CCCCN)C(=O)N[C@@H](CCCCN)C(=O)N[C@@H](CCCCN)C(=O)N[C@@H](CCCCN)C(=O)N[C@@H](CCCCN)C(=O)O)C(C)C` [GLP-1(7-36)(Human)-(Lys)6-OH, H-His-Ala-Glu-Gly-Thr-Phe-Thr-Ser-Asp-Val-Ser-Ser-Tyr-Leu -Glu-Gly-Gln-Ala-Ala-Lys-Glu-Phe-Ile-Ala-Trp-Leu-Val-Lys-Gly-Arg-(Lys)6-OH]: at leucine aminopeptidase, the “pseudo first-order rate constant for the degradation” value (shortened to “pseudo first-order rate constant”) is 0.013 min⁻¹ and the half-life turned out to be 0.883 h. Besides, at carboxypeptidase A, the half-life came to 1.45 h and the “pseudo first-order rate constant” value was found to be 0.008 min⁻¹.
At leucine aminopeptidase, `CC[C@H](C)[C@H](NC(=O)[C@H](Cc1ccccc1)NC(=O)[C@H](CCC(=O)O)NC(=O)[C@H](CCCCN)NC(=O)[C@H](C)NC(=O)[C@H](C)NC(=O)[C@H](CCC(N)=O)NC(=O)CNC(=O)[C@H](CCC(=O)O)NC(=O)[C@H](CC(C)C)NC(=O)[C@H](Cc1ccc(O)cc1)NC(=O)[C@H](CO)NC(=O)[C@H](CO)NC(=O)[C@@H](NC(=O)[C@H](CC(=O)O)NC(=O)[C@H](CO)NC(=O)[C@@H](NC(=O)[C@H](Cc1ccccc1)NC(=O)[C@@H](NC(=O)CNC(=O)[C@H](CCC(=O)O)NC(=O)[C@H](C)NC(=O)[C@@H](N)Cc1c[nH]cn1)[C@@H](C)O)[C@@H](C)O)C(C)C)C(=O)N[C@@H](C)C(=O)N[C@@H](Cc1c[nH]c2ccccc12)C(=O)N[C@@H](CC(C)C)C(=O)N[C@H](C(=O)N[C@@H](CCCCN)C(=O)NCC(=O)N[C@@H](CCCNC(=N)N)C(=O)O)C(C)C` [GLP-1(7-36)(Human)-OH, H-His-Ala-Glu-Gly-Thr-Phe-Thr-Ser-Asp-Val-Ser-Ser-Tyr-Leu -Glu-Gly-Gln-Ala-Ala-Lys-Glu-Phe-Ile-Ala-Trp-Leu-Val-Lys-Gly-Arg-OH, reference compound] returned a half-life of 0.367 h. Also, on carboxypeptidase A, the half-life came to 2.47 h and the “pseudo first-order rate constant” value was determined as 0.0047 min⁻¹.
`CC(C)C[C@H](NC(=O)[C@H](Cc1ccccc1)NC(=O)CNC(=O)CNC(=O)[C@@H](N)Cc1ccc(O)cc1)C(=O)N[C@@H](CCN)C(=O)N[C@@H](CCN)C(=O)N[C@@H](CCN)C(=O)N[C@@H](CCN)C(=O)N[C@@H](CCN)C(=O)N[C@@H](CCN)C(=O)O` [Leu-Enkephalin-(Dbu)6-OH, H-Tyr-Gly-Gly-Phe-Leu-(Dbu)6-OH] (H-YGGFL[Dab][Dab][Dab][Dab][Dab][Dab]-OH): at leucine aminopeptidase, the “pseudo first-order rate constant” value amounted to 0.025 min⁻¹ and the half-life was 0.467 h. Besides, at carboxypeptidase A, the half-life is 23.1 h and the “pseudo first-order rate constant” value stood at 0.005 min⁻¹.
With “H-KKKKKKYGGFL-OH [(Lys)6-Leu-Enkephalin-OH, H-Lys6 Tyr-Gly-Gly-Phe-Leu-OH]”, at leucine aminopeptidase, the “pseudo first-order rate constant” value was determined as 0.026 min⁻¹ and the half-life is 0.45 h.
For the compound “H-RPKPQQFFGLMKKKKKK-NH2 [Substance P-(Lys)6-NH2, H-Arg-Pro-Lys-Pro-Gln-Gln-Phe-Phe-Gly-Leu-Met-Lys6 -NH2]”, on leucine aminopeptidase, the “pseudo first-order rate constant” value is 0.011 min⁻¹ and the half-life is 1.1 h. At carboxypeptidase A, the half-life turned out to be 2.1 h and the “pseudo first-order rate constant” value came out at 0.0055 min⁻¹.
Consider “H-WAGGDASGEKEKEKE-OH [DSIP-(Lys-Glu)3-OH, H-Trp-Ala-Gly-Gly-Asp-Ala-Ser-Gly-Glu-(Lys-Glu)3-OH]”, for which, on leucine aminopeptidase, the half-life was determined as 2.42 h.
For the compound “H-YGGFLKEEEKK-OH [Leu-Enkephalin-Lys-(Glu)3-(Lys)2-OH, H-Tyr-Gly-Gly-Phe-Leu-Lys-(Glu)3-(Lys)2-OH]”, at leucine aminopeptidase, the “pseudo first-order rate constant” value came out at 0.12 min⁻¹ and the half-life was found to be 0.095 h. For the same compound, at carboxypeptidase A, the half-life was 14.4 h and the “pseudo first-order rate constant” value was determined as 0.0008 min⁻¹.
As to “KKKKKKYGGFLKKKKKK [(Lys)6-Leu-Enkephalin-(Lys)6-OH, H-Lys6-Tyr-Gly-Gly-Phe-Leu-Lys6 OH]”, the half-life at leucine aminopeptidase is above 100 h.
Consider “WAGGDASGE [DSIP, H-Trp-Ala-Gly-Gly-Asp-Ala-Ser-Gly-GIu-OH, reference compound]”, for which the half-life at leucine aminopeptidase is below 0.333 h.
